According to patent US20030176314A1, “Compounds for the treatment of pain” (priority 2001, published 2003):

What was measured:
[1] = biological target: T1, human α1B adrenergic receptor (Homo sapiens, UniProt P35368); test: Binding at human α1B adrenergic receptor; details: Table 8; read-out: hα1B Ki
T1 construct: host or cells: LM(tk-) cells, line L-α1B
T1 sequence (P35368 1-520): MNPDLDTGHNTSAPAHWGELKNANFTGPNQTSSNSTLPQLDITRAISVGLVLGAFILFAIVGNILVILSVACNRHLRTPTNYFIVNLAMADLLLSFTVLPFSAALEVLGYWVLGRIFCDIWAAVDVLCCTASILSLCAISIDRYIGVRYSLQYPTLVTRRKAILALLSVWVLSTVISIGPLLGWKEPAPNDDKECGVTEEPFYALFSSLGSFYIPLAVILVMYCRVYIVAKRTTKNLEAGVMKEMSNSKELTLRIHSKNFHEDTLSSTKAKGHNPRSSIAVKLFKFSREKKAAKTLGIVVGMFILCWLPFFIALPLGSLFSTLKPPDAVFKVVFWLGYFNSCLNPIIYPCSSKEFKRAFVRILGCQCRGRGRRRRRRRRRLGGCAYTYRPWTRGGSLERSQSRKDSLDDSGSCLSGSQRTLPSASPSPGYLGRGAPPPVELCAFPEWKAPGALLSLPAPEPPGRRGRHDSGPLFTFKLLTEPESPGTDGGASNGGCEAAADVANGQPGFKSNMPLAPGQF
Source text: α1 Human Adrenergic Receptors: To determine the binding of compounds to human α1 receptors, LM(tk−) cell lines stably transfected with the genes encoding the α1a, α1b, and α1d receptors were used. The nomenclature describing the α1 receptors was changed recently, such that the receptor formerly designated α1a is now designated α1d, and the receptor formerly designated α1c is now designated α1a. The cell lines expressing these receptors were deposited with the ATCC before the nomenclature change and reflect the subtype designations formerly assigned to these receptors. Thus, the cell line expressing the receptor described herein as the α1a receptor was deposited with the ATCC on Sep. […] The cell line expressing receptor described herein as the α1d receptor was deposited with the ATCC on Sep. […] The cell line expressing the α1b receptor is designated L-α1B, and was deposited on Sep.
(§1) The binding affinity (Ki) of these compounds were tested according to the protocols described herein at the following receptors; human α1A, α1B, α1D, α2A, α2B, and α2C adrenergic receptors; human Y1, Y2, Y4, and Y5 receptors; and N-Methyl-D-aspartic acid (NMDA) receptor channels. The binding interactions of these compounds were additionally tested at the norepinephrine (NE) transporter (NE uptake) and serotonin (5-hydroxytryptamine (5HT)) transporter (5HT uptake) according to protocols described herein

[2] = tested on: distension induced contractions of the rat bladder; test: Distension-induced rhythmic contraction (DIRC) model, micturition reflex in anesthetized rats; type: in vivo
Source text: This model is widely considered to be predictive for the actions of drugs to treat human urge incontinence (also refered to as detrusor instability or unstable bladder). Examples of drugs that are active in this model which also are used therapeutically in humans include oxybutynin and baclofen (Morikawa et al, 1992); imipramine and nortriptyline (Pietra et al, 1990); and nifedipine and terodiline (Guarneri et al, 1993).
Female Sprague Dawley rats weighing approximately 300 g were anesthetized with subcutaneous urethane (1.2 g/kg). The trachea was cannulated with PE240 tubing to provide a clear airway throughout the experiment. A midline abdominal incision was made and the left and right ureters were isolated. The ureters were ligated distally (to prevent escape of fluids from the bladder) and cannulated proximally with PE10 tubing. The incision was closed using 4-0 silk sutures, leaving the PE10 lines routed to the exterior for the elimination of urine. The bladder was canulated via the transurethral route using PE50 tubing inserted 2.5 cm beyond the urethral opening. This cannula was secured to the tail using tape and connected to a pressure transducer. To prevent leakage from the bladder, the cannula was tied tightly to the exterior urethral opening using 4-0 silk.
To initiate the micturition reflex, the bladder was first emptied by applying pressure to the lower abdomen, and then filled with normal saline in 100 μl increments (maximum=2 ml) until spontaneous bladder contractions occurred (typically 20-40 mmHg at a rate of one contraction every 2 to 3 minutes. Once a regular rhythm was established, vehicle (saline) or test compounds were administered i.v. to examine their effects on bladder activity. The effect of a compound which inhibited the micturition reflex was expressed as its “disappearance time”, defined as the time between successive bladder contractions in the presence of the test compound minus the time between contractions before compound administration.

[3] = biological target: T2, human α2A adrenergic receptor (Homo sapiens, UniProt P08913); test: Binding at human α2A adrenergic receptor; details: Table 8; read-out: hα2A Ki
T2 construct: host or cells: LM(tk-) cells, line L-α2A
T2 sequence (P08913 1-465): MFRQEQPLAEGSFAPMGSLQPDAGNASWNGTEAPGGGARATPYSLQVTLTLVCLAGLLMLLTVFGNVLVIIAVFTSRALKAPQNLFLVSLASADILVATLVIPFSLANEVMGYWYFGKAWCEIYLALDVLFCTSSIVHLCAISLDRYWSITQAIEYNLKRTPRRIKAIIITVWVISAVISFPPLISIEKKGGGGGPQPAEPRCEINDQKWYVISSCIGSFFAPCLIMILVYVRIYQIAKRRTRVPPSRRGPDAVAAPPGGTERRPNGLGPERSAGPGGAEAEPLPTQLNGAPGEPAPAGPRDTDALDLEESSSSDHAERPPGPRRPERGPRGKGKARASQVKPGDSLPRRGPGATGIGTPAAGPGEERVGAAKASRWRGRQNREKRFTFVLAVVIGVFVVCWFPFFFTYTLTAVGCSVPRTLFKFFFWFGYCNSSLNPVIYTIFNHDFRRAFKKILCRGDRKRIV
Source text: α2 Human Adrenergic Receptors: To determine the binding of compounds to human α2 receptors, LM(tk−) cell lines stably transfected with the genes encoding the α2A, α2B, and α2C receptors were used. The cell line expressing the α2A receptor is designated L-α2A, and was deposited on Nov. 6, 1992, under ATCC Accession No. CRL 11180. The cell line expressing the α2B receptor is designated L-NGC-α2B, and was deposited on Oct. 25, 1989, under ATCC Accession No. CRL 10275. The cell line expressing the α2C receptor is designated L-α2C, and was deposited on Nov. 6, 1992, under ATCC Accession No. CRL-11181. Cell lysates were prepared as described herin, and suspended in 25 mM glycyiglycine buffer (pH 7.6 at room temperature). Equilibrium competition binding assay were performed using […] (0.5 nM), and nonspecific binding was determined by incubation with 10 μM phentolamine. The bound radioligand was separated by filtration through GF/B filters using a cell harvester.
as §1

Ki [3] [nM] | Structure (SMILES) | Ki [1] [nM] | inhibition of distention-induced contractions of the rat bladder ([2]; 1 mg/kg, i.v.) | time for which inhibition of bladder activity persisted ([2]; i.v. administration, anesthetized rat (figure legends)) [min]
– | Cc1nc(NC(=N)N)nc2ccc3ccccc3c12 [Compound 1007A] | 3040 | – | –
199 | Cc1cc(NC(=N)N)nc2ccc(Cl)cc12 [Compound 4005A, N-(6-chloro-4-methyl-2-quinolinyl)guanidine] | – | complete inhibition | 35
